Laboratory results from ChEMBL document CHEMBL1201862, “PubChem BioAssay data set” (2004).
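Step 1: Grow cells in 96-well plates. Step 2: Expose to compound for 48 hours at 5 concentrations. Step 3: Interpolate endpoints linearly; if unreached, use highest concentration. The concentration for 50% growth inhibition is given as GI50.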 Activity calls are given as the source filed them. Rule as the data show it: active = GI50 up to about 1.1 µM and inactive = higher.

Experiments:
Experiment in all cases: NCI tumour cell line growth inhibition, 48 h
786-0 = tested on: 786-0
A498 = tested on: A498
A549 = tested on: A549
ACHN = tested on: ACHN
CCRF-CEM = tested on: CCRF-CEM
COLO 205 = tested on: COLO 205
DU-145 = tested on: DU-145
EKVX = tested on: EKVX
HCC 2998 = tested on: HCC 2998
HCT-116 = tested on: HCT-116
HCT-15 = tested on: HCT-15
HL-60 = tested on: HL-60
HOP-62 = tested on: HOP-62
HOP-92 = tested on: HOP-92
HT-29 = tested on: HT-29
Hs-578T = tested on: Hs-578T
IGROV-1 = tested on: IGROV-1
K562 = tested on: K562
KM12 = tested on: KM12
LOX IMVI = tested on: LOX IMVI
M14 = tested on: M14
MCF7 = tested on: MCF7
MDA-MB-231 = tested on: MDA-MB-231
MDA-MB-435 = tested on: MDA-MB-435
MOLT-4 = tested on: MOLT-4
Malme-3M = tested on: Malme-3M
NCI-H226 = tested on: NCI-H226
NCI-H23 = tested on: NCI-H23
NCI-H460 = tested on: NCI-H460
NCI/ADR-RES = tested on: NCI/ADR-RES
OVCAR-4 = tested on: OVCAR-4
OVCAR-5 = tested on: OVCAR-5
OVCAR-8 = tested on: OVCAR-8
RPMI-8226 = tested on: RPMI-8226
RXF 393 = tested on: RXF 393
SF-268 = tested on: SF-268
SF-295 = tested on: SF-295
SF-539 = tested on: SF-539
SK-MEL-28 = tested on: SK-MEL-28
SK-MEL-5 = tested on: SK-MEL-5
SK-OV-3 = tested on: SK-OV-3
SN12C = tested on: SN12C
SNB-19 = tested on: SNB-19
SNB-75 = tested on: SNB-75
SR = tested on: SR
SW-620 = tested on: SW-620
T47D = tested on: T47D
TK-10 = tested on: TK-10
U-251 = tested on: U-251
UACC-257 = tested on: UACC-257
UACC-62 = tested on: UACC-62
UO-31 = tested on: UO-31

What does the source list for `CN1CCC2(CC1)/C(=N/C1CCCCC1)NC(=S)N2c1ccccc1`?
GI50 (786-0): > 100 µM (inactive); GI50 (A498): > 100 µM (inactive); GI50 (A549): > 100 µM (inactive); GI50 (ACHN): 89.3 µM (inactive); GI50 (CCRF-CEM): > 100 µM (inactive); GI50 (COLO 205): > 100 µM (inactive); GI50 (DU-145): > 100 µM (inactive); GI50 (EKVX): > 100 µM (inactive); GI50 (HCC 2998): > 100 µM (inactive); GI50 (HCT-116): > 100 µM (inactive); GI50 (HCT-15): > 100 µM; GI50 (HL-60): > 100 µM (inactive); GI50 (HOP-62): > 100 µM (inactive); GI50 (HOP-92): > 100 µM (inactive); GI50 (HT-29): > 100 µM (inactive); GI50 (Hs-578T): 13.8 µM (inactive); GI50 (IGROV-1): > 100 µM (inactive); GI50 (K562): > 100 µM (inactive); GI50 (KM12): > 100 µM (inactive); GI50 (LOX IMVI): > 100 µM (inactive); GI50 (M14): > 100 µM (inactive); GI50 (MCF7): > 100 µM (inactive); GI50 (MDA-MB-231): > 100 µM (inactive); GI50 (MDA-MB-435): > 100 µM (inactive); GI50 (MOLT-4): > 100 µM (inactive); GI50 (Malme-3M): > 100 µM (inactive); GI50 (NCI-H226): > 100 µM (inactive); GI50 (NCI-H23): > 100 µM (inactive); GI50 (NCI-H460): > 100 µM (inactive); GI50 (NCI/ADR-RES): > 100 µM (inactive); GI50 (OVCAR-4): > 100 µM (inactive); GI50 (OVCAR-5): > 100 µM (inactive); GI50 (OVCAR-8): > 100 µM (inactive); GI50 (RPMI-8226): > 100 µM (inactive); GI50 (RXF 393): > 100 µM (inactive); GI50 (SF-268): > 100 µM (inactive); GI50 (SF-295): > 100 µM (inactive); GI50 (SF-539): > 100 µM (inactive); GI50 (SK-MEL-28): > 100 µM (inactive); GI50 (SK-MEL-5): > 100 µM (inactive); GI50 (SK-OV-3): > 100 µM (inactive); GI50 (SN12C): > 100 µM (inactive); GI50 (SNB-19): > 100 µM (inactive); GI50 (SNB-75): > 100 µM (inactive); GI50 (SR): > 100 µM (inactive); GI50 (SW-620): > 100 µM (inactive); GI50 (T47D): > 100 µM (inactive); GI50 (TK-10): > 100 µM (inactive); GI50 (U-251): > 100 µM (inactive); GI50 (UACC-257): > 100 µM (inactive); GI50 (UACC-62): > 100 µM (inactive); GI50 (UO-31): > 100 µM (inactive)
